Results published in ChEMBL document CHEMBL1147695, “Synthesis and in vitro evaluation of N-substituted aza-trozamicol analogs as vesicular acetylcholine transporter ligands” (Bioorg Med Chem Lett, 2006).

biological target: T1, Vesicular acetylcholine transporter (Homo sapiens, UniProt Q16572); assay: Displacement of [3H]vesamicol from human VAChT transfected in PC12 cell line; type: cell-based, PC-12
T1 sequence (Q16572 whole entry): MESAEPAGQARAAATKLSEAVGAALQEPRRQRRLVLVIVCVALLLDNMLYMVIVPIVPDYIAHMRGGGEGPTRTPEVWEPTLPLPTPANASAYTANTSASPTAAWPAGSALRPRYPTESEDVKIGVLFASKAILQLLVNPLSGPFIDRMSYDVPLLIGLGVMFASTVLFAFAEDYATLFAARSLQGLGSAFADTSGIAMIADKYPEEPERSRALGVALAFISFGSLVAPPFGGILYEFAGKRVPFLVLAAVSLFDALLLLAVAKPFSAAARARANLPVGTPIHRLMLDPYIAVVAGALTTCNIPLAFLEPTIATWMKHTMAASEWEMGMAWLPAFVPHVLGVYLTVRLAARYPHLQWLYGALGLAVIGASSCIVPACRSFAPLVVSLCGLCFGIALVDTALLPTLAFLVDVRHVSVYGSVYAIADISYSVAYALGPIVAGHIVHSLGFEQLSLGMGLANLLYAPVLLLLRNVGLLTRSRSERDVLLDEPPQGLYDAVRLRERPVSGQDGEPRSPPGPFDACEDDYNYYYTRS

Row | SMILES | IC50 [nM]
1 | C/C=C/CN1CCC(O)C(N2CCN(c3ccccc3)CC2)C1 (configuration not stated) | > 100
2 | C#CCN1CCC(O)C(N2CCN(c3ccccc3)CC2)C1 (configuration not stated) | > 100
3 | C=CCN1CCC(N2CCN(c3ccccc3)CC2)C(O)C1 (configuration not stated) | > 100
4 | C=C(C)CN1CCC(N2CCN(c3ccccc3)CC2)C(O)C1 (configuration not stated) | > 100
5 | C=CCN1CCC(O)C(N2CCN(c3ccccc3)CC2)C1 (configuration not stated) | > 100
6 | OC1CCN(Cc2ccccc2Br)CC1N1CCN(c2ccccc2)CC1 (configuration not stated) | 47
7 | OC1CCN(C/C=C/I)CC1N1CCN(c2ccccc2)CC1 (configuration not stated) | > 100
8 | CCN1CCC(O)C(N2CCN(c3ccccc3)CC2)C1 (configuration not stated) | > 1000
9 | OC1CN(Cc2ccccc2Br)CCC1N1CCN(c2ccccc2)CC1 (configuration not stated) | 11
10 | OC1CCN(Cc2cccc(Br)c2)CC1N1CCN(c2ccccc2)CC1 (configuration not stated) | 46
11 | OC1CN(Cc2cccc(Br)c2)CCC1N1CCN(c2ccccc2)CC1 (configuration not stated) | 66
12 | C#CCN1CCC(N2CCN(c3ccccc3)CC2)C(O)C1 (configuration not stated) | > 1000
13 | OC1CN(C/C=C/I)CCC1N1CCN(c2ccccc2)CC1 (configuration not stated) | > 100
14 | C/C=C/CN1CCC(N2CCN(c3ccccc3)CC2)C(O)C1 (configuration not stated) | 100
15 | OC1CCN(Cc2ccc(Br)cc2)CC1N1CCN(c2ccccc2)CC1 (configuration not stated) | > 100
16 | OC1CN(Cc2ccccc2)CCC1N1CCN(c2ccccc2)CC1 (configuration not stated) | 57
17 | OC1CCNCC1N1CCN(c2ccccc2)CC1 (configuration not stated) | > 100
18 | OC1CCN(Cc2ccccc2)CC1N1CCN(c2ccccc2)CC1 (configuration not stated) | > 100
19 | OC1CNCCC1N1CCN(c2ccccc2)CC1 (configuration not stated) | 100
20 | OC1CN(Cc2ccc(Br)cc2)CCC1N1CCN(c2ccccc2)CC1 (configuration not stated) | > 100
21 | CCN1CCC(N2CCN(c3ccccc3)CC2)C(O)C1 (configuration not stated) | > 1000
22 | C=C(C)CN1CCC(O)C(N2CCN(c3ccccc3)CC2)C1 (configuration not stated) | > 100
